Literature values as cited in patent US7732395B2, “Water-stabilized antimicrobial organosilane products, compositions, and methods for using the same” (Vitec Specialty Chemicals Ltd., priority 2006, dated 2010).

Settings: prior art

**Q.** For `CCCCCCCCCCCCCCCCCC[N+](C)(C)CCC[Si](OC)(OC)OC.[Cl-]` [3-(trimethoxysilyl)propyl-dimethyloctadecyl ammonium chloride], which “time after which the mixture with water begins to lose effectiveness” value is on record?
**A.** The value was “four to eight”.
